Test system: 233499-124-R-J3-PDC spheroids with HUVEC/MSC, viability
Experiment: Anticancer human tumor 233499-124-R-J3-PDC patient-derived colon adenocarcinoma cell line growth inhibition [PI3K]
Settings: for viability, T/C: stronger effect = lower value
From the text: Combinatorial screen of targeted agents with the PI3K inhibitors inavolisib, alpelisib, duvelisib, and copanlisib in multi-cell type tumor spheroids
A high-throughput screen of multi-cell type tumor spheroids was designed to identify active combinations of targeted small molecules and PI3K pathway inhibitors. Complex spheroids include a stromal component modeled by human endothelial cells (HUVEC) and fibroblasts modeled by human mesenchymal stem cells (MSCs). The concentration ranges selected for each drug and investigational agent were based upon clinically achievable concentrations if the clinical Cmax of the agent was known.
Compounds. The drugs and investigational agents: inavolisib (NSC800729), alpelisib (NSC765974), duvelisib (NSC772469), copanlisib (NSC816437), ipatasertib (NSC767898), afuresertib (NSC778305), talazoparib (NSC767125), sapanisertib (NSC764658), selumetinib (NSC741078), tovorafenib (DAY101, NSC766906), vemurafenib (NSC761431), ravoxertinib (NSC781343), sotorasib (NSC818433), MRTX1133 (NSC 836407), abemaciclib (NSC 768073), palbociclib (NSC758247), venetoclax (NSC 766270), SY5609 (NSC837396), enzalutamide (NSC755605), and darolutamide (NSC825331), were obtained from the National Cancer Institute (NCI) Developmental Therapeutics Program Chemical Repository. The FDA-approved anticancer drug set is available from the NCI Developmental Therapeutics Program. […] The stock solutions were prepared in dimethyl sulfoxide (DMSO, Sigma-Aldrich, St. Louis, MO, cat. D2650) at 800-fold the tested concentration and stored at -70 degrees C prior to their use. All drugs and investigational agents were tested over a range starting from a high concentration at or near the clinical Cmax and decreasing in half-log increments. If the clinical Cmax for an agent had not been determined, the highest concentration tested was 10 microM.
Cell Culture. All cells were maintained in an incubator at 37 degrees C and 5% CO2 with 95% humidity. The PDC lines were cultured according to standard operating procedures established by the NCI PDMR (https://pdmr.cancer.gov/sops/default.htm). All PDCs were thawed and cultured in Matrigel-coated flasks prepared with a working solution of 1X Ham's F-12 nutrient mix, without supplementation (Invitrogen, Waltham, MA, cat. 11765054), 100 U/mL penicillin-streptomycin (Invitrogen, cat. 15140122), and 2.5% Matrigel (Corning Inc., Corning, NY, cat. 354248) for the first three passages. The 354836-022-R-J1-PDC, 475296-252-R-J1-PDC, and 997726-040-R-J2-PDC lines were cultured in 6A media, which includes advanced DMEM/F-12 (Thermo Fisher Scientific, cat. 12634028), 10 mM HEPES (Thermo Fisher Scientific, cat. 15630080), 1X GlutaMAX supplement (Thermo Fisher Scientific, cat. 35050061), 0.1 mg/mL primocin (InvivoGen, San Diego, CA, cat. ant-pm-2), 10% defined fetal bovine serum, heat inactivated (HyClone Laboratories Inc., Logan, UT, cat. SH30070.03HI), 50% L-WRN conditioned media (ATCC, cat. CRL-3276), 1.25 mM N-Acetyl-L-cysteine (Sigma-Aldrich, cat. A9165), 10 mM nicotinamide (Sigma-Aldrich, cat. N0636), 1X B-27 supplement (Thermo Fisher Scientific, cat. 17504044), 1X N-2 supplement (Thermo Fisher Scientific, cat. 17502048), and 10 microM Y-27632 dihydrochloride (Tocris Bioscience, Bristol, United Kingdom, cat. 1254). The 624824-186-R-J2-PDC line was cultured in 6C/Colon 1B media, which includes all 6A media components plus 50 ng/mL human EGF recombinant protein (Thermo Fisher Scientific, cat. PHG0311). […]

[1] = curve of first compound, second compound 0.0316 µM
[2] = curve of first compound, second compound 0.1 µM
[3] = curve of first compound, second compound 0.316 µM
[4] = curve of first compound, second compound 1 µM
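Also: spheroids exposed to agents for seven days before readout.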
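For viability, T/C in this document: percent viability relative to DMSO vehicle control taken as 100%.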

Cn1nccc1Nc1nccc(-c2ccn(C(CO)c3ccc(Cl)c(F)c3)c(=O)c2)n1 (configuration not stated) + CC(Nc1ncnc2nc[nH]c12)c1cc2cccc(Cl)c2c(=O)n1-c1ccccc1 was tested, and the IC50 [1] was greater than 10000 nM, the IC50 [2] was greater than 10000 nM and the IC50 [3] was greater than 10000 nM. It also gave an IC50 [4] greater than 10000 nM, an IC50 (curve of first compound, second compound 3.16 µM) greater than 10000 nM and an IC50 (curve of first compound, second compound 10 µM) greater than 10000 nM. It also gave a viability, T/C (second compound 0.0316 µM, first compound 0.0316 µM) of 108%, a viability, T/C (second compound 0.0316 µM, first compound 0.1 µM) of 104% and a viability, T/C (second compound 0.0316 µM, first compound 0.316 µM) of 110%. It also gave a viability, T/C (second compound 0.0316 µM, first compound 1 µM) of 88%, a viability, T/C (second compound 0.0316 µM, first compound 3.16 µM) of 89% and a viability, T/C (second compound 0.0316 µM, first compound 10 µM) of 70.8%. It also gave a viability, T/C (second compound 0.1 µM, first compound 0.0316 µM) of 103%, a viability, T/C (second compound 0.1 µM, first compound 0.1 µM) of 95.6% and a viability, T/C (second compound 0.1 µM, first compound 0.316 µM) of 91.3%. It also gave a viability, T/C (second compound 0.1 µM, first compound 1 µM) of 65.1%, a viability, T/C (second compound 0.1 µM, first compound 3.16 µM) of 92.8% and a viability, T/C (second compound 0.1 µM, first compound 10 µM) of 62.3%. For the same compound, the viability, T/C (second compound 0.316 µM, first compound 0.0316 µM) was 108%, the viability, T/C (second compound 0.316 µM, first compound 0.1 µM) was 89.9% and the viability, T/C (second compound 0.316 µM, first compound 0.316 µM) was 90.4%. It also gave a viability, T/C (second compound 0.316 µM, first compound 1 µM) of 70.8%, a viability, T/C (second compound 0.316 µM, first compound 3.16 µM) of 78.1% and a viability, T/C (second compound 0.316 µM, first compound 10 µM) of 68.6%. For the same compound, the viability, T/C (second compound 1 µM, first compound 0.0316 µM) was 91.7%, the viability, T/C (second compound 1 µM, first compound 0.1 µM) was 72.6% and the viability, T/C (second compound 1 µM, first compound 0.316 µM) was 72.9%. For the same compound, the viability, T/C (second compound 1 µM, first compound 1 µM) was 86.3%, the viability, T/C (second compound 1 µM, first compound 3.16 µM) was 81.3% and the viability, T/C (second compound 1 µM, first compound 10 µM) was 69%. It also gave a viability, T/C (second compound 3.16 µM, first compound 0.0316 µM) of 87%, a viability, T/C (second compound 3.16 µM, first compound 0.1 µM) of 87.9% and a viability, T/C (second compound 3.16 µM, first compound 0.316 µM) of 74.5%. It also gave a viability, T/C (second compound 3.16 µM, first compound 1 µM) of 89.8%, a viability, T/C (second compound 3.16 µM, first compound 3.16 µM) of 66.3% and a viability, T/C (second compound 3.16 µM, first compound 10 µM) of 77.6%. It also gave a viability, T/C (second compound 10 µM, first compound 0.0316 µM) of 76.8%, a viability, T/C (second compound 10 µM, first compound 0.1 µM) of 83.8% and a viability, T/C (second compound 10 µM, first compound 0.316 µM) of 98%. The viability, T/C (second compound 10 µM, first compound 1 µM) was 69.9%, the viability, T/C (second compound 10 µM, first compound 3.16 µM) was 76.4% and the viability, T/C (second compound 10 µM, first compound 10 µM) was 51.9%.

For C[C@@H](NC(=O)c1ncnc(N)c1Cl)c1ncc(C(=O)Nc2cc(C(F)(F)F)c(Cl)cn2)s1, the viability, T/C (compound 3.16 µM) was 110% [middle of 4 runs], the viability, T/C (compound 10 µM) was 110% [middle of 4 runs] and the IC50 (curve of compound) was greater than 10000 nM.

Compound Cn1cnc2c(F)c(Nc3ccc(Br)cc3Cl)c(C(=O)NOCCO)cc21 + COc1c(OCCCN2CCOCC2)ccc2c3n(c(=NC(=O)c4cnc(N)nc4)nc12)CCN3 has an IC50 (curve of first compound, second compound 0.00316 µM) of 378 nM, an IC50 (curve of first compound, second compound 0.01 µM) of 760 nM and an IC50 [1] of 131 nM. It also gave an IC50 [2] of 54 nM, an IC50 [3] of less than 9.49 nM and an IC50 [4] of less than 9.49 nM. It also gave a viability, T/C (second compound 0.00316 µM, first compound 0.00949 µM) of 55.7%, a viability, T/C (second compound 0.00316 µM, first compound 0.03 µM) of 73.5% and a viability, T/C (second compound 0.00316 µM, first compound 0.0949 µM) of 76.5%. For the same compound, the viability, T/C (second compound 0.00316 µM, first compound 0.3 µM) was 54.9%, the viability, T/C (second compound 0.00316 µM, first compound 0.949 µM) was 31.2% and the viability, T/C (second compound 0.00316 µM, first compound 3 µM) was 29.5%. The viability, T/C (second compound 0.01 µM, first compound 0.00949 µM) was 75.2%, the viability, T/C (second compound 0.01 µM, first compound 0.03 µM) was 80.8% and the viability, T/C (second compound 0.01 µM, first compound 0.0949 µM) was 75.5%. It also gave a viability, T/C (second compound 0.01 µM, first compound 0.3 µM) of 56%, a viability, T/C (second compound 0.01 µM, first compound 0.949 µM) of 50.3% and a viability, T/C (second compound 0.01 µM, first compound 3 µM) of 24.6%. The viability, T/C (second compound 0.0316 µM, first compound 0.00949 µM) was 68.3%, the viability, T/C (second compound 0.0316 µM, first compound 0.03 µM) was 78.9% and the viability, T/C (second compound 0.0316 µM, first compound 0.0949 µM) was 54.1%. It also gave a viability, T/C (second compound 0.0316 µM, first compound 0.3 µM) of 34.2%, a viability, T/C (second compound 0.0316 µM, first compound 0.949 µM) of 30.4% and a viability, T/C (second compound 0.0316 µM, first compound 3 µM) of 20.1%. For the same compound, the viability, T/C (second compound 0.1 µM, first compound 0.00949 µM) was 71.5%, the viability, T/C (second compound 0.1 µM, first compound 0.03 µM) was 67.5% and the viability, T/C (second compound 0.1 µM, first compound 0.0949 µM) was 33.1%. The viability, T/C (second compound 0.1 µM, first compound 0.3 µM) was 28.2%, the viability, T/C (second compound 0.1 µM, first compound 0.949 µM) was 19.1% and the viability, T/C (second compound 0.1 µM, first compound 3 µM) was 17.9%. For the same compound, the viability, T/C (second compound 0.316 µM, first compound 0.00949 µM) was 41.3%, the viability, T/C (second compound 0.316 µM, first compound 0.03 µM) was 34.2% and the viability, T/C (second compound 0.316 µM, first compound 0.0949 µM) was 13.1%. The viability, T/C (second compound 0.316 µM, first compound 0.3 µM) was 10.2%, the viability, T/C (second compound 0.316 µM, first compound 0.949 µM) was 5.14% and the viability, T/C (second compound 0.316 µM, first compound 3 µM) was 6.9%. The viability, T/C (second compound 1 µM, first compound 0.00949 µM) was 2.93%, the viability, T/C (second compound 1 µM, first compound 0.03 µM) was 7.86% and the viability, T/C (second compound 1 µM, first compound 0.0949 µM) was 4.9%. The viability, T/C (second compound 1 µM, first compound 0.3 µM) was 0.96%, the viability, T/C (second compound 1 µM, first compound 0.949 µM) was 1.18% and the viability, T/C (second compound 1 µM, first compound 3 µM) was 1.01%.

With CC(C)NCC(C(=O)N1CCN(c2ncnc3c2C(C)CC3O)CC1)c1ccc(Cl)cc1 (configuration not stated) the viability, T/C (compound 0.0316 µM) was 97.7% [middle of 4 runs], the viability, T/C (compound 0.316 µM) was 94% [middle of 4 runs] and the viability, T/C (compound 1 µM) was 102% [middle of 4 runs]. For the same compound, the viability, T/C (compound 3.16 µM) was 94.5% [middle of 4 runs] and the IC50 (curve of compound) was greater than 10000 nM.

From PubChem BioAssay AID1963984 (Molecular Pharmacology Branch, DTP, NCI, 2024)
